How the values were obtained:
human 5-HT1A receptor [1] = target: T1, human 5-HT1A receptor (Homo sapiens (Human), UniProt P08908); experiment: Test 2: agonist activity for human 5-HT1A receptor ([35S]GTPγS binding); format: biochemical; conditions: for Emax at 10 µM: agonist activity in the presence of 10 μM of compound, relative to 100 μmol/L 5-HT; for EC50: [35S]GTPγS binding, concentration at which half the activity of Emax was obtained
Method: Test 2: Evaluation of Agonist Activity for Human 5-HT1A Receptor
CHO cell membrane fraction in which human 5-HT1A receptor was expressed as used in Test 1 was purchased. To a buffer containing guanosine diphosphate were added a test compound dissolved in DMSO, each receptor membrane sample diluted with buffer, and [^35S] Guanosine 5′-O-[gamma-thio]triphosphate (GTPγS). The mixture was incubated at room temperature for 60 minutes. Then, the mixture was added quickly on a glassfiber filter plate (Multiscreen FB, Millipore, Inc.), and vacuum-filtered. Radioactivity remaining on the […] was measured with a liquid scintillation counter. Agonist activity was calculated from the following formula.

[2] = Test 4: metabolic stability test in human hepatic microsome; format: in vitro ADME; conditions: 0.1 mg/mL microsome, 0.1 μmol/L compound, 37° C., 30 minutes
Method: Test 4: Metabolic Stability Test in Human Hepatic Microsome
The stability of the present compound in human hepatic microsome metabolism was evaluated as mentioned below. Human hepatic microsome was obtained from Xenontech. Human hepatic microsome, NADPH, and each test compound were mixed in 25 mmol/L phosphate buffer solution (pH 7.4) to reach the following concentrations as shown below, and the mixture was incubated at 37° C. for 30 minutes. • Human hepatic microsome: 0.1 mg/mL • NAPDH: 3.2 mmol/L • Test compound: 0.1 μmol/L
The residual ratio of the test compound in each sample after 30 minutes was measured by LC-MS, and the metabolic stability in human hepatic microsome was calculated from the following formula. Metabolic stability in human hepatic microsome (mL/min/mg protein)=−LN (residual ratio)/30/0.1

hERG channel = hERG channel (Homo sapiens (Human), UniProt Q12809); experiment: Test 6-1: inhibitory activity for hERG channel (auto patch clamp, Qpatch); format: cell-based; conditions: whole cell auto patch clamp, hERG-CHO cells; read-out: hERG inhibition IC50
Method: Test 6-1: Evaluation of Inhibitory Activity for hERG Channel
Inhibitory activity of the present compound for hERG channel was measured by whole cell patch clamp method with an auto patch clamp system using CHO cells in which hERG channel involved in human rapidly activating delayed rectifier potassium current (IKr) was forcibly expressed.
hERG-CHO cells purchased from ChanTest Cop. were cultured in a CO2 incubator at 37° C., and dissociated from a flask with trypsin shortly before the measurement of hERG current, to prepare a cell suspension.
Extracellular fluid: 2 mmol/L CaCl2, 1 mmol/L MgCl2, 10 mmol/L HEPES, 4 mmol/L KCl, 145 mmol/L NaCl, 10 mmol/L Glucose
Intracellular fluid: 5.4 mmol/L CaCl2, 1.8 mmol/L MgCl2, 10 mmol/L HEPES, 31 mmol/L KOH, 10 mmol/L EGTA, 120 mmol/L KCl, 4 mmol/L Na2-ATP
Test compound solution: Test compound was dissolved in DMSO to reach the concentration of 2 mmol/L or 20 mmol/L, in order to prepare a test compound solution. […] (Measurement of Current Value and Data Analysis)
The cell suspension, the extracellular fluid, the intracellular fluid, and the measurement plate were set in the auto patch clamp system, and hERG current was measured by whole cell patch clamp method. […] Each pulse interval was 15 seconds. The data analysis was carried out with Qpatch Assay Software (Biolin Scientific). The test was carried out by applying incrementally 4 concentrations of each test compound, and the average of the maximum peak tail currents which were obtained from the last 3 stimulations in each concentration was determined as the evaluated data. Based on the current inhibition rate for a pre-applied current at each concentration of each test compound, IC50 value was calculated by Hill equation with the software.

human D2 receptor = human D2 receptor (Homo sapiens (Human), UniProt P14416); experiment: Test 1: binding activity for human D2 receptor ([3H]Spiperone, CHO cell membrane fraction); conditions: human D2 receptor, [3H]Spiperone
Method: (§1) Test 1: Evaluation of Binding Activity for Human 5-HT1A Receptor, Human 5-HT2A Receptor, and Human D2 Receptor
(§2) Binding affinity of the present compound for human 5-HT1A receptor, human 5-HT2A receptor, and human D2 receptor was measured by the following procedures.
(§3) Each mixture was incubated at room temperature for 60 minutes. Then, the mixture was added quickly on a glassfiber filter plate (Multiscreen FB, Millipore, Inc.) coated with 0.3% aqueous polyethylenimine, and vacuum-filtered. Radioactivity remaining on the filter was measured with a liquid scintillation counter (PerkinElmer, Inc.). Binding inhibition rate was calculated from the following formula.
(§4) Ki of each compound was calculated from the following formula. Binding inhibition constant (Ki)=IC50/(1+S/Kd) wherein S is concentration of ligand; Kd is a binding dissociation constant of ligand to membrane, which is calculated from a saturated binding experiment conducted with the same cell membrane. A small Ki value means strong binding ability to a receptor.

human 5-HT1A receptor [3] = target: T1, human 5-HT1A receptor; experiment: Test 1: binding activity for human 5-HT1A receptor ([3H]8-OH-DPAT, CHO cell membrane fraction)
Method: as §1, §2, §3
as §4, with “IC50 value was calculated by Hill analysis (Physiology, 1910, 40, 190-200). Ki of” for “Ki of”

Chain of hERG channel (Q12809 whole entry): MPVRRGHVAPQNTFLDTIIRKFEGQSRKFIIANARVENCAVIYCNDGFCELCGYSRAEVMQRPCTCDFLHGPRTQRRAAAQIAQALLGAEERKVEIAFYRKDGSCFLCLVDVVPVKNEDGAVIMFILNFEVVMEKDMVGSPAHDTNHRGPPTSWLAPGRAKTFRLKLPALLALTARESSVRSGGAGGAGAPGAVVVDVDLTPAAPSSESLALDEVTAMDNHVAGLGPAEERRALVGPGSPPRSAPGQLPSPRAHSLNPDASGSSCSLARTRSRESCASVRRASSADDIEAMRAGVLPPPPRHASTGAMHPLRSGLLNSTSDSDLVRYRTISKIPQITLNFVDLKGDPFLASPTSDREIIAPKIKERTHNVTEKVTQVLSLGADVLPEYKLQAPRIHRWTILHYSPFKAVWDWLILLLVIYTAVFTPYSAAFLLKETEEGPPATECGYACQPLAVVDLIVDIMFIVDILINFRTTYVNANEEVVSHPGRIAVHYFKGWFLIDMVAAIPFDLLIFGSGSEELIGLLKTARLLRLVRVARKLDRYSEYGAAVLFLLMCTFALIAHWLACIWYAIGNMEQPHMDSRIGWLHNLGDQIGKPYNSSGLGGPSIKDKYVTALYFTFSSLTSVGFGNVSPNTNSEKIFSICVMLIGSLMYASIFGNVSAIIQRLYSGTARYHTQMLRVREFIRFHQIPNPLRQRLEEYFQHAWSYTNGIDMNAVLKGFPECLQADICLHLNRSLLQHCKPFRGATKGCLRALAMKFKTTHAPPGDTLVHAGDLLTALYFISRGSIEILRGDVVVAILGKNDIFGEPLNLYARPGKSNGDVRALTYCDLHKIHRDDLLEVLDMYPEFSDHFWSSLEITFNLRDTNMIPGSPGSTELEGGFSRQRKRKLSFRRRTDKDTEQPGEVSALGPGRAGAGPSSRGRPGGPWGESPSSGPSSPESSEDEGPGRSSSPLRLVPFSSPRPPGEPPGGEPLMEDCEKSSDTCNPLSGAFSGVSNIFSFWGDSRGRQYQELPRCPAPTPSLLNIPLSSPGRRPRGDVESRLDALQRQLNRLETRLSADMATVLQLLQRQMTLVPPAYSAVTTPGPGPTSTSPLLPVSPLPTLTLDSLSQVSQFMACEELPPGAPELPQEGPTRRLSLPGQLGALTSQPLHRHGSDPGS
T1 sequence (P08908 whole entry): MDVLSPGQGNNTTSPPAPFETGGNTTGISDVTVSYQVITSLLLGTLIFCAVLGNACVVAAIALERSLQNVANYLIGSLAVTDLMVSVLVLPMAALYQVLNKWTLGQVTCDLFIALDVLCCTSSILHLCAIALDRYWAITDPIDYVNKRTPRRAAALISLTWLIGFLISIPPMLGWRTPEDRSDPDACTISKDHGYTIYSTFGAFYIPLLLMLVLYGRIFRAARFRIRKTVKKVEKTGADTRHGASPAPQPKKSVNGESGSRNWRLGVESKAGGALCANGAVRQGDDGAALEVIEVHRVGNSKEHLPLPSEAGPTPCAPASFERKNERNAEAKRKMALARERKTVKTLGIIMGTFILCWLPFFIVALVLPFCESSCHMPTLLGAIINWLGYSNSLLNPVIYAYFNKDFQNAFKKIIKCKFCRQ
Chain of human D2 receptor (P14416 whole entry): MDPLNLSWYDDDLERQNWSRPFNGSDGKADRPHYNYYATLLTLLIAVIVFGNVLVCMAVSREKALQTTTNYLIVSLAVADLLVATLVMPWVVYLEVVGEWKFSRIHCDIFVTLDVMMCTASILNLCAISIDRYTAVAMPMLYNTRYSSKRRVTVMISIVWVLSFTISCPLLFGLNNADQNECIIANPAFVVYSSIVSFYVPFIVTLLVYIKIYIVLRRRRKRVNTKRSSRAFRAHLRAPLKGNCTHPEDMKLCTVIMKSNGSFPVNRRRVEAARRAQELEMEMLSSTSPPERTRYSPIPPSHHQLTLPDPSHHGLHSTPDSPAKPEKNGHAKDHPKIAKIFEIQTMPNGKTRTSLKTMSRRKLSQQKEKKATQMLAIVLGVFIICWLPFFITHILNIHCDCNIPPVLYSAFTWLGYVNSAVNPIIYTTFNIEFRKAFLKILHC

SMILES	Emax at 10 µM (human 5-HT1A receptor [1]) [%]	Metabolic stability in human hepatic microsome [2] [mL/min/mg protein]	IC50 (hERG channel) [nM]	Ki (human D2 receptor) [nM]	Ki (human 5-HT1A receptor [3]) [nM]	EC50 (human 5-HT1A receptor [1]) [nM]
O=c1c2ncccc2ccn1CCN1CCN(c2nsc3ccccc23)CC1 [Example 8]	50	0.064	2000	–	–	–
Cn1cc2c(n1)CCN(CCN1CCC(c3noc4ccccc34)CC1)C2=O [Example 17]	52	<0.01	1000	689	–	–
Cn1cc2c(n1)C(=O)N(CCN1CCC(c3noc4ccccc34)CC1)CCC2 [Example 48]	37	<0.01	1200	574	–	–
O=C1c2oc(C3CC3)nc2CCN1CCN1CCC(c2noc3ccccc23)CC1 [Example 68]	38	0.056	< 270	853	–	–
Cn1nc(Br)c2c1CCN(CCN1CCC(c3noc4ccccc34)CC1)C2=O [Example 70]	50	–	–	867	14.1	79.3
CCc1nc2c(o1)C(=O)N(CCN1CCN(c3nsc4ccccc34)CC1)CC2 [Example 71]	67	–	–	305	2.64	7.34
Cn1nc2c(c1Br)C(=O)N(CCN1CCN(c3nsc4ccccc34)CC1)CC2 [Example 73]	–	–	–	234	0.97	–
Cn1nc2c(c1Br)C(=O)N(CCN1CCC(c3noc4ccccc34)CC1)CC2 [Example 74]	51	–	–	210	3.48	4.42
O=c1c2cnc(C(F)(F)F)cc2ccn1CCN1CCC(c2noc3ccccc23)CC1 [Example 84]	59	–	–	954	–	–
Cc1cc2c(cn1)C(=O)N(CCN1CCN(c3noc4ccccc34)CC1)CC2(C)C [Example 86]	51	–	–	1210	9.9	16
Cc1ncc2c(=O)n(CCN3CCN(c4nsc5ccccc45)CC3)ccc2n1 [Example 95]	62	0.143	–	2580	7.91	77.9
O=C1c2[nH]cnc2CCCN1CCN1CCN(c2nsc3ccccc23)CC1 [Example 100, 5-{2-[4-(1,2-Benzoisothiazol-3-yl)piperazin-1-yl]ethyl}-5,6,7,8-tetrahydroimidazo[4,5-c]azepin-4(3H)-one]	58	–	–	6940	6.35	86.5
Cn1ccc2c1CCCN(CCN1CCN(c3noc4ccccc34)CC1)C2=O [Example 109, 5-{2-[4-(1,2-Benzoisoxazol-3-yl)piperazin-1-yl]ethyl}-1-methyl-5,6,7,8-tetrahydropyrrolo[3,2-c]azepin-4 (H)-one]	60	<0.01	11300	601	–	–
Cc1ccc2c(C3CCN(CCN4CCc5cccnc5C4=O)CC3)noc2c1 [Example 118]	5	–	–	276	73.1	550
